Measurements as given in patent US12448395B2 (BRISTOL-MYERS SQUIBB COMPANY, priority 2019, dated 2025).

Tests used:
human TLR8 = target: T1, human TLR8 (Homo sapiens, UniProt Q9NR97); assay: TLR8 inhibition reporter assay (HEK-Blue SEAP, R848 stimulation); type: cell-based; conditions: HEK-Blue cells overexpressing human TLR8, R848 15.9 μM
T1 sequence (Q9NR97 27-1041): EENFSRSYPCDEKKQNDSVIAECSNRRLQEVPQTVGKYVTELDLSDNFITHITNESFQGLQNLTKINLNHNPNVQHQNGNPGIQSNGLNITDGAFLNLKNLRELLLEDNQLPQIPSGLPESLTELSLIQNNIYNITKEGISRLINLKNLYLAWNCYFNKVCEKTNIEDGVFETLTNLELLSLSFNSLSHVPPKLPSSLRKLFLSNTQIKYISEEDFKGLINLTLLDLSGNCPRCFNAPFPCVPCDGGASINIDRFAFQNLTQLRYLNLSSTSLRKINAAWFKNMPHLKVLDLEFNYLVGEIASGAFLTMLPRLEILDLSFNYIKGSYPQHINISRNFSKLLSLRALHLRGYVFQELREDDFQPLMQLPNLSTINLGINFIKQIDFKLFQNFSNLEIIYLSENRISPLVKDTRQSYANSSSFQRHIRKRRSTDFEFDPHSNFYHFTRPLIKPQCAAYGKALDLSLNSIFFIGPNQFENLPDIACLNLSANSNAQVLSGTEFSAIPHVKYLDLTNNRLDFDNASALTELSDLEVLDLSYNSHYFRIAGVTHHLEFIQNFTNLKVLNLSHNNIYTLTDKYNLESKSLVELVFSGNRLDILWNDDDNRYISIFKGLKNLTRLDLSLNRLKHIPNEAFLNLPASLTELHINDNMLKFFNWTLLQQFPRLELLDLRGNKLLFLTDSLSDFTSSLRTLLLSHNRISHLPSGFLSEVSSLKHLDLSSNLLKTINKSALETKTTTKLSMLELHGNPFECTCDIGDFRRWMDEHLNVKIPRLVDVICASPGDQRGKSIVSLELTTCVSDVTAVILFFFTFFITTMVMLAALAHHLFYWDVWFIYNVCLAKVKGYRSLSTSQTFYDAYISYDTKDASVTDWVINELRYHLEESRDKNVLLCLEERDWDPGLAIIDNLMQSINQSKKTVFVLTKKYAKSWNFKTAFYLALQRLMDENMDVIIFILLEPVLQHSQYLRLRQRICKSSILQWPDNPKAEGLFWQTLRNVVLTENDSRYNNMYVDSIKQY
Experimental: (§1) TLR7/8/9 Inhibition Reporter Assays
(§2) HEK-Blue™-cells (Invivogen) overexpressing human TLR7, TLR8 or TLR9 receptors were used for screening inhibitors of these receptors using an inducible SEAP (secreted embryonic alkaline phosphatase) reporter gene under the control of the IFN-β minimal promoter fused to five NF-κB and AP-1-binding sites. Briefly, cells are seeded into Greiner 384 well plates (15000 cells per well for TLR7, 20,000 for TLR8 and 25,000 for TLR9) and then treated with test compounds in DMSO to yield a final dose response concentration range of 0.05 nM-50 μM. After a 30 minute compound pre-treatment at room temperature, the cells are then stimulated with a TLR7 ligand (gardiquimod at a final concentration of 7.5 μM), TLR8 ligand (R848 at a final concentration of 15.9 μM) or TLR9 ligand (ODN2006 at a final concentration of 5 nM) to activate NF-κB and AP-1 which induce the production of SEAP. After a 22 hour incubation at 37° C., 5% CO2, SEAP levels are determined with the addition of HEK-Blue™ Detection reagent (Invivogen), a cell culture medium that allows for detection of SEAP, according to manufacturer's specifications. The percent inhibition is determined as the % reduction in the HEK-Blue signal present in wells treated with agonist plus DMSO alone compared to wells treated with a known inhibitor.

human TLR9 = target: T2, human TLR9 (Homo sapiens, UniProt Q9NR96); assay: TLR9 inhibition reporter assay (HEK-Blue SEAP, ODN2006 stimulation); type: cell-based; conditions: HEK-Blue cells overexpressing human TLR9, ODN2006 5 nM
T2 sequence (Q9NR96 26-1032): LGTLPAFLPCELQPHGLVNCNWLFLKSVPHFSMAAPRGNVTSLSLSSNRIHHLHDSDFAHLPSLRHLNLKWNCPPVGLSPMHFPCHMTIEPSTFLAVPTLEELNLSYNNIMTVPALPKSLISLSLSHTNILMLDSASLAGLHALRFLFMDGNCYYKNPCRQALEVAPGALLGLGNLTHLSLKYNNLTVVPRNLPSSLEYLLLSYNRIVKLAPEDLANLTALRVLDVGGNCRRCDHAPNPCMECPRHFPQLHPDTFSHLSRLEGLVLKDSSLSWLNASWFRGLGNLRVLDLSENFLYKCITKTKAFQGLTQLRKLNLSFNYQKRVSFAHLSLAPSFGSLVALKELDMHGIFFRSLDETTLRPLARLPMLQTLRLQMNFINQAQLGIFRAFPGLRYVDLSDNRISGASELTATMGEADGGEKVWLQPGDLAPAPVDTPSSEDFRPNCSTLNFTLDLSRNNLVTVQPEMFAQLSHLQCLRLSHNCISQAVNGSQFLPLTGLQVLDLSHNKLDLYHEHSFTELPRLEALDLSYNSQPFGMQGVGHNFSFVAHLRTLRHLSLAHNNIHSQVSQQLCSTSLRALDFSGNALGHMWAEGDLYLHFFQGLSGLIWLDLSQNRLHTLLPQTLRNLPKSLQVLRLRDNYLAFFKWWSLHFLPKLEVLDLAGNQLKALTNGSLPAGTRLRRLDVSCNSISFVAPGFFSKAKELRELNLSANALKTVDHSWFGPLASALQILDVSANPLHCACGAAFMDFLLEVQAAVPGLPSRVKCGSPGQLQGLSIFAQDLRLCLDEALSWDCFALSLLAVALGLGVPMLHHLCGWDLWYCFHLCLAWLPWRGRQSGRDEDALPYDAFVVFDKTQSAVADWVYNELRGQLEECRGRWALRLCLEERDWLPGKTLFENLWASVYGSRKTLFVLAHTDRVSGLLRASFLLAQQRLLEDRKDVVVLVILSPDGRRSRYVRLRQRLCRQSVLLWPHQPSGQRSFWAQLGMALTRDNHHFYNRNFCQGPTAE
Experimental: as §1, §2

IC50 (human TLR8) [µM]	IC50 (human TLR9) [µM]	Compound
> 3.13		COCCN1CCN(c2nc3c(C(C)C)c(-c4cc(C)c5ncnn5c4)[nH]c3s2)[C@H](C)C1 [Example 357, (R)-6-isopropyl-2-(4-(2-methoxyethyl)-2-methylpiperazin-1-yl)-5-(8-methyl-[1,2,4]triazolo[1,5-a]pyridin-6-yl)-4H-pyrrolo[3,2-d]thiazole]
> 3.13	> 50	Cc1cc(-c2[nH]c3sc(N4CCN(CC(C)(C)O)C[C@H]4C)nc3c2C(C)C)cn2ncnc12 [Example 359, (R)-1-(4-(6-isopropyl-5-(8-methyl-[1,2,4]triazolo[1,5-a]pyridin-6-yl)-4H-pyrrolo[3,2-d]thiazol-2-yl)-3-methylpiperazin-1-yl)-2-methylpropan-2-ol]
> 3.13		Cc1cc(-c2[nH]c3sc(N4CCNC[C@H]4C)nc3c2C(C)C)cn2ncnc12 [Example 311, (R)-6-isopropyl-5-(8-methyl-[1,2,4]triazolo[1,5-a]pyridin-6-yl)-2-(2-methylpiperazin-1-yl)-4H-pyrrolo[3,2-d]thiazole]
> 3.13		Cc1cc(-c2[nH]c3sc(N4CCN(CC(C)C)C[C@H]4C)nc3c2C(C)C)cn2ncnc12 [Example 361, (R)-2-(4-isobutyl-2-methylpiperazin-1-yl)-6-isopropyl-5-(8-methyl-[1,2,4]triazolo[1,5-a]pyridin-6-yl)-4H-pyrrolo[3,2-d]thiazole]
	> 50	Cc1c(-c2[nH]c3sc(N4C[C@@H](C)N(CC(=O)N(C)C)C[C@@H]4C)nc3c2C(C)C)cn2ncnc2c1C [Example 335, 2-((2R,5S)-4-(5-(7,8-dimethyl-[1,2,4]triazolo[1,5-a]pyridin-6-yl)-6-isopropyl-4H-pyrrolo[3,2-d]thiazol-2-yl)-2,5-dimethylpiperazin-1-yl)-N,N-dimethylacetamide]
	> 50	Cc1c(-c2[nH]c3sc(C(=O)N4CCNC(=O)C4)nc3c2C(C)C)cn2ncnc2c1C [Example 378, 4-(5-(7,8-dimethyl-[1,2,4]triazolo[1,5-a]pyridin-6-yl)-6-isopropyl-4H-pyrrolo[3,2-d]thiazole-2-carbonyl)piperazin-2-one]
	> 50	Cc1c(-c2[nH]c3sc(N4CCN(CC(=O)N(C)C)CC4)nc3c2C(C)C)cn2ncnc2c1C [Example 283, 2-(4-(5-(7,8-dimethyl-[1,2,4]triazolo[1,5-a]pyridin-6-yl)-6-isopropyl-4H-pyrrolo[3,2-d]thiazol-2-yl)piperazin-1-yl)-N,N-dimethylacetamide]
	> 50	Cc1c(-c2[nH]c3sc(N4CCN(CC(=O)N(C)C)C[C@H]4C)nc3c2C(C)C)cn2ncnc2c1C [Example 312, (R)-2-(4-(5-(7,8-dimethyl-[1,2,4]triazolo[1,5-a]pyridin-6-yl)-6-isopropyl-4H-pyrrolo[3,2-d]thiazol-2-yl)-3-methylpiperazin-1-yl)-N,N-dimethylacetamide]
	> 50	Cc1c(-c2[nH]c3sc(C4CCN(CCS(C)(=O)=O)CC4)nc3c2C(C)C)cn(C)c(=O)c1C [Example 61, 5-(6-isopropyl-2-(1-(2-(methylsulfonyl)ethyl)piperidin-4-yl)-4H-pyrrolo[3,2-d]thiazol-5-yl)-1,3,4-trimethylpyridin-2 (1H)-one]
	> 50	Cc1cc(-c2[nH]c3sc(C(=O)N4CCCOCC4)nc3c2C(C)C)cn2ncnc12 [Example 394, (6-isopropyl-5-(8-methyl-[1,2,4]triazolo[1,5-a]pyridin-6-yl)-4H-pyrrolo[3,2-d]thiazol-2-yl)(1,4-oxazepan-4-yl)methanone]
	> 50	COc1cc(-c2[nH]c3sc(C(=O)NCC(F)(F)F)nc3c2C(C)C)cn2ncnc12 [Example 390, 6-isopropyl-5-(8-methoxy-[1,2,4]triazolo[1,5-a]pyridin-6-yl)-N-(2,2,2-trifluoroethyl)-4H-pyrrolo[3,2-d]thiazole-2-carboxamide]
	> 50	Cc1c(-c2[nH]c3sc(N4CCN(C5CCC5)C[C@@H]4C)nc3c2C(C)C)cn2ncnc2c1C [Example 349]

Compound	IC50 (human TLR8) [µM]	IC50 (human TLR9) [µM]
Cc1c(-c2[nH]c3sc(CN4CC5(C4)CS(=O)(=O)C5)nc3c2C(C)C)cn2ncnc2c1C [Example 403, 6-((5-(7,8-dimethyl-[1,2,4]triazolo[1,5-a]pyridin-6-yl)-6-isopropyl-4H-pyrrolo[3,2-d]thiazol-2-yl)methyl)-2-thia-6-azaspiro[3.3]heptane 2,2-dioxide]		> 50
